Data set [1] addresses T1, MAP kinase-activated protein kinase 2 (Homo sapiens, UniProt P49137). Put plainly: Inhibition of MAPKAP-K2 using KKLNRTLSVA as substrate and [33P]-gamma-ATP after 30 mins by liquid scintillation counter.
In data set [2] the target is Cyclin-dependent kinase 2 (Homo sapiens, UniProt P24941).
Description: Inhibition of CDK2 after 60 mins using [33P]-gamma-ATP by liquid scintillation counter
Data set [3] addresses T1, MAP kinase-activated protein kinase 2. The experiment in a line: Binding affinity to recombinant MAPKAP-K2 using KKKALSRQLSVAA as substrate after 4 mins by […]. For orientation: Surface plasmon resonance follows binding to a sensor surface in real time, without labels.
Data set [4] has as its system Mus musculus. The experiment in a line: Antiinflammatory activity in po dosed C57BL/6 mouse assessed as decrease in LPS-induced serum TNFalpha level administered 30 mins prior to LPS challenge measured 60 mins post LPS challenge by ELISA. The format is functional, organism-based. (An ELISA detects its analyte on a solid surface through an enzyme-linked reagent.)
Data set [5] deals with Serine/threonine-protein kinase Chk2 (Homo sapiens) (UniProt O96017). Put plainly: Inhibition of human CHK2 at 30 uM by Cyclex assay.
Chain of Serine/threonine-protein kinase Chk2 (Homo sapiens) (O96017 whole entry): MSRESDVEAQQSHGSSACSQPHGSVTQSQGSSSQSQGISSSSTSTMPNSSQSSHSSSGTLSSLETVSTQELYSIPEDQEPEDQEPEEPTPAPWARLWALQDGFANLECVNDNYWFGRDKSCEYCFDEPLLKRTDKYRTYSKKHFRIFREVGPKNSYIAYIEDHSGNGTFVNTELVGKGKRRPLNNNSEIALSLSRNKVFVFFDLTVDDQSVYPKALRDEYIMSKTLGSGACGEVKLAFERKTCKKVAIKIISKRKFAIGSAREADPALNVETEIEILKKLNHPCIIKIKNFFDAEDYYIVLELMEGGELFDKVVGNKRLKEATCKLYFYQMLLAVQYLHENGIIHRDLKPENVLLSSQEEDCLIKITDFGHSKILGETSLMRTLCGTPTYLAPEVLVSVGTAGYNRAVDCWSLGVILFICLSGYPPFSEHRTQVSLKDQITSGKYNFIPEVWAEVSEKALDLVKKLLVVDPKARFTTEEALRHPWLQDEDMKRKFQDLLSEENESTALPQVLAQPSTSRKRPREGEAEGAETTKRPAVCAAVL
For data set [6], the target named is T1, MAP kinase-activated protein kinase 2. The experiment in a line: Inhibition of human MAPKAP-K2 in THP1 cells assessed as inhibition of LPS-induced TNFalpha production incubated 1 hr prior to LPS challenge measured 18 hrs post LPS challenge by HTRF assay. The data set is classed as cell-based, THP-1.
Data set [7] can be described thus: AUC (0 to 24 hrs) in mouse at 1 mg/kg, po. The format is ADME, organism-based. Also noted: time < 24 hr, dose 1 mg/kg, route oral. The following applies: plasma.
Data set [8] has as its system THP-1. Put plainly: Cytotoxicity against human THP1 cells assessed as cell viability by MTS assay. The data set is classed as cell-based. On the technique in general: Formazan colour is commonly taken as a measure of viable cells.
The nature of data set [9]: Total clearance in mouse at 1 mg/kg, iv. The format is ADME, organism-based. Also noted: dose 1 mg/kg, route intravenous. The following applies: in vivo.
The nature of data set [10]: Oral bioavailability in mouse at 1 mg/kg. The data set is classed as ADME, organism-based. The following applies: in vivo.
A short description of data set [11]: Half life in mouse at 1 mg/kg, iv. Also noted: dose 1 mg/kg, route intravenous. The data set is classed as ADME, organism-based. The following applies: in vivo.
For data set [12], the target named is T1, MAP kinase-activated protein kinase 2. Put plainly: Inhibition of MAPKAP-K2.

Calls of active or inactive are those of the source. No cut-off for these calls is given here.

T1 sequence (P49137 whole entry): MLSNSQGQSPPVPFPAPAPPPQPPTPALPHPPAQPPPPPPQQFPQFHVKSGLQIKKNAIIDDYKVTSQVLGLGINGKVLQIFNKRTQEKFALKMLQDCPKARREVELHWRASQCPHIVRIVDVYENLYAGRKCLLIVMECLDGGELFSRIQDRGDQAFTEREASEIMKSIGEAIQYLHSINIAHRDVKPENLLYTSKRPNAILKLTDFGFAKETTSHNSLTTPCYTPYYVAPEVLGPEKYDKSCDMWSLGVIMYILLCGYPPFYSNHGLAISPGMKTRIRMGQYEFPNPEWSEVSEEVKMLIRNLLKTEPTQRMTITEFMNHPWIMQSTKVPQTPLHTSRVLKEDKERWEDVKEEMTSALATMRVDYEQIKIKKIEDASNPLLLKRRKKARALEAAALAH

Regarding `Cc1cc2nc(N[C@H]3CC[C@H](N)CC3)cc(Nc3ccc(F)c(Cl)c3)n2n1`, in data set [1], the IC50 is over 300 µM.

Consider `Cc1c(N[C@H]2CC[C@H](N)CC2)nc2ccnn2c1Nc1ccccc1Cl`, for which the IC50 came out at 6.4 µM in data set [2] and 1.7 µM in [1].

In data set [1], `Fc1ccc(Nc2cc(NCC3CCNCC3)nc3ccnn23)cc1Cl` displayed an IC50 of over 100 µM.

With `CCN(CC)[C@H]1CC[C@H](Nc2cc(Nc3ccc(F)c(Cl)c3)n3nccc3n2)CC1`, the IC50 in data set [1] was over 100 µM.

Take `CCc1c(N[C@H]2CC[C@H](N)CC2)nc2ccnn2c1Nc1ccccc1Cl`: the half-maximal inhibitory concentration (IC50) in data set [2] was over 300 µM; in [1], 1.5 µM.

With `Cc1ccc(-c2ccc3c(ccc4sc5c(c43)NC[C@@H](C)NC5=O)n2)cn1`, the half-inhibitory concentration (IC50) in data set [3] was 0.005 µM.

On to `CCOc1ccc(Nc2c(C)c(N[C@H]3CC[C@H](O)CC3)nc3ccnn23)cc1`, for which half-maximal inhibition in data set [1] (IC50) was put at 89 µM.

In data set [1], `N[C@H]1CC[C@H](Nc2cc(NCC3CCCCC3)n3nccc3n2)CC1` registered an IC50 of 11 µM.

For `Fc1ccc(Nc2cc(NC3CCCCC3)nc3ccnn23)cc1Cl`, in [1], the IC50 is over 100 µM.

In turn, `CCOC(=O)c1ccc(Nc2c(C)c(N[C@H]3CC[C@H](N)CC3)nc3ccnn23)cc1` registered an IC50 in data set [1] of 0.7 µM.

Take `CC(=O)N[C@H]1CC[C@H](Nc2cc(Nc3ccc(F)c(Cl)c3)n3nccc3n2)CC1`: in [1], the 50% inhibitory concentration (IC50) was over 100 µM.

For the compound `Cc1c(N[C@H]2CCCNC2)nc2ccnn2c1Nc1ccc2c(cnn2C)c1`, the concentration for half-maximal inhibition (IC50) in data set [2] turned out to be 27 µM; in data set [1], 0.076 µM.

Consider `CCOc1ccc(Nc2c(C)c(NCCN)nc3ccnn23)cc1`, for which the half-maximal inhibitory concentration (IC50) in data set [1] was determined as 2.5 µM.

In [1], `CCN[C@H]1CC[C@H](Nc2cc(Nc3ccc(F)c(Cl)c3)n3nccc3n2)CC1` returned a half-maximal inhibitory concentration (IC50) of 2 µM.

In the case of `N[C@H]1CC[C@H](Nc2cc(NCc3ccccc3)n3nccc3n2)CC1`, half-maximal inhibition in data set [1] (IC50) was put at 7 µM.

On to `Cc1ccc(-n2nc(C(C)(C)C)cc2NC(=O)Nc2ccc(OCCN3CCOCC3)c3ccccc23)cc1`, for which the Activity entry in data set [4] was “Dose-dependent effect”.

As to `NC1CCCC(Nc2cc(Nc3ccc(F)c(Cl)c3)n3nccc3n2)C1` (centres undefined), the half-inhibitory concentration (IC50) in [1] was over 100 µM.

`Cc1c(N[C@H]2CC[C@H](N)CC2)nc2ccnn2c1Nc1ccc(F)c(Cl)c1`: the IC50 in data set [2] came out at 11 µM; in data set [1], 0.4 µM.

As for `CCOc1ccc(Nc2c(C)c(N[C@H]3CC[C@H](N)CC3)nc3ccnn23)cc1`, the inhibition result in data set [5] is “inactive”. The compound further registered an IC50 in data set [1] of 0.36 µM.

Take `Fc1ccc(Nc2cc(NC3CCCNC3)nc3ccnn23)cc1Cl` (racemic): the IC50 in data set [2] is 0.7 µM; in [1] it was 0.4 µM.

As for `CCOc1cccc(Nc2c(C)c(N[C@H]3CC[C@H](N)CC3)nc3ccnn23)c1`, in data set [1], the IC50 stood at 1.4 µM.

Compound `CC(C)(C)c1cc2nc(N[C@H]3CC[C@H](N)CC3)cc(Nc3ccc(F)c(Cl)c3)n2n1` came in with a 50% inhibitory concentration (IC50) in data set [1] of over 300 µM.

As for `CCc1c(NC2CCCNC2)nc2ccnn2c1Nc1ccc(F)c(Cl)c1` (racemic), the IC50 was 24 µM in data set [2] and 0.7 µM in [1].

In the case of `CCCc1c(N[C@H]2CC[C@H](N)CC2)nc2ccnn2c1Nc1ccc(F)c(Cl)c1`, the half-maximal inhibitory concentration (IC50) came out at 2.1 µM in data set [2] and 0.6 µM in data set [1].

In data set [1], `CCOc1ccc(Nc2c(C)c(N(C)C3CCCNC3)nc3ccnn23)cc1` (racemic) gave an IC50 of 26 µM.

In the case of `CC(=O)c1ccc(-c2ccc(Nc3c(C)c(N[C@H]4CCCNC4)nc4ccnn34)cc2)s1`, the IC50 in data set [2] turned out to be 21 µM; in data set [1] it was 0.057 µM.

The compound `Cc1c(N[C@H]2CC[C@H](N)CC2)nc2ccnn2c1Nc1ccc(OCc2ccccc2)cc1` yielded a 50% inhibitory concentration (IC50) in data set [1] of 0.7 µM.

In data set [1], `Nc1ccc(Nc2cc(Nc3ccc(F)c(Cl)c3)n3nccc3n2)cc1` had an IC50 of over 100 µM.

With `N[C@H]1CC[C@H](Nc2cc(Nc3ccc(F)c(Cl)c3)n3ncc(Cl)c3n2)CC1`, the IC50 in data set [2] stood at 0.003 µM; in [1] it was 8.1 µM.

For `N[C@H]1CC[C@H](Nc2cc(Nc3ccccc3Cl)n3nccc3n2)CC1`, the figures for the IC50 in data set [2] and in data set [1] were 0.39 µM and 0.2 µM, respectively. For the same compound, in data set [5], the inhibition entry was “inactive”.

Regarding `Cc1c(N[C@H]2CC[C@H](N)CC2)nc2ccnn2c1Nc1cccc(OCc2ccccc2)c1`, 3 µM corresponded to half-maximal inhibition in data set [1] (IC50).

For `COCCOc1ccc(Nc2c(C)c(N[C@H]3CCCNC3)nc3ccnn23)cc1`, the IC50 in data set [6] was 7.6 µM; in data set [8] it was over 100 µM; in data set [2] it was 22 µM; in data set [1] it was 0.13 µM. In addition, the AUC(0-t) at 24 h in data set [7] was found to be 0.316 µM·h. In data set [9], this compound showed a clearance of 58.3 mL/min/kg. The compound further displayed a bioavailability in [10] of 80%. The half-life in data set [11] is 1 h.

On to `N[C@H]1CC[C@H](Nc2cc(Nc3ccc(F)c(Cl)c3)n3ncc(Br)c3n2)CC1`, for which the figures for the 50% inhibitory concentration (IC50) in data set [2] and in data set [1] were 0.0034 µM and 9.2 µM, respectively.

As for `Cc1c(NC2CCCNC2)nc2ccnn2c1Nc1ccc(F)c(Cl)c1` (racemic), the IC50 was 33 µM in data set [2] and 0.51 µM in [1].

Turning to `Cc1c(N[C@H]2CCCNC2)nc2ccnn2c1Nc1ccc(C(=O)NC2CCCC2)cc1`, the concentration for half-maximal inhibition (IC50) in data set [2] is 49 µM; in data set [1], 0.14 µM.

As to `N#Cc1cnn2c(Nc3ccc(F)c(Cl)c3)cc(N[C@H]3CC[C@H](N)CC3)nc12`, the results for the IC50 in data set [2] and in data set [1] were 0.004 µM and 3.1 µM, respectively.

`Cc1nc2ccc(Nc3c(C)c(N[C@H]4CCCNC4)nc4ccnn34)cc2s1`: the IC50 in data set [6] came out at 8.4 µM; in [8], 54 µM; in [2], 25 µM; in data set [1], 0.054 µM. In [7], the area under the curve AUC(0-t) at 24 h was 0.579 µM·h. The clearance in [9] was 58.3 mL/min/kg. The compound also yielded a bioavailability in data set [10] of 79%. The compound further gave a half-life in data set [11] of 2.6 h.

In turn, `CCOc1ccc(Nc2c(C)c(N[C@H]3CCCNC3=O)nc3ccnn23)cc1` gave an IC50 in data set [1] of over 100 µM.

In data set [1], `CCOC(=O)c1cccc(Nc2c(C)c(N[C@H]3CC[C@H](N)CC3)nc3ccnn23)c1` had an IC50 of 1.9 µM.

In [1], `CCOc1ccc(Nc2c(C)c(NCCCCN)nc3ccnn23)cc1` showed a concentration for half-maximal inhibition (IC50) of 4.1 µM.

`N#Cc1c(N)nc2c(c1N)Cc1cc(O)c(O)cc1O2`: half-maximal inhibition in [12] (IC50) required 0.13 µM.

`Cc1c(N[C@H]2CCCNC2)nc2ccnn2c1Nc1ccc(OCCN2CCOCC2)cc1`: the concentration for half-maximal inhibition (IC50) in [2] was 62 µM; in [1], 0.16 µM.

`CC(C)CCNc1cc(N[C@H]2CC[C@H](N)CC2)nc2ccnn12` displayed an IC50 in [1] of 12 µM.

Turning to `Fc1ccc(Nc2cc(NC3CCNCC3)nc3ccnn23)cc1Cl`, inhibition in [1] was half-maximal at 25 µM (IC50).

`CCOc1ccc(Nc2c(C)c(NCCCN)nc3ccnn23)cc1` registered an IC50 in [1] of 8.7 µM.

Turning to `N[C@H]1CC[C@H](Nc2nc3ccnn3c(Nc3ccc(F)c(Cl)c3)c2-c2ccccc2)CC1`, the IC50 was 6 µM in data set [2] and 1.6 µM in data set [1].

As to `CCc1c(N[C@H]2CC[C@H](N)CC2)nc2ccnn2c1Nc1ccc(F)c(Cl)c1`, the IC50 in data set [2] was found to be 3.6 µM; in data set [1], 0.4 µM. Moreover, the inhibition result in data set [5] was “inactive”.

Take `CCOc1ccc(Nc2c(C)c(NCCO)nc3ccnn23)cc1`: the IC50 in data set [1] came out at 83 µM.

As for `CCOc1ccc(Nc2c(C)c(O[C@H]3CC[C@H](N)CC3)nc3ccnn23)cc1`, the IC50 in data set [1] is 0.57 µM.

For the compound `CN(c1ccc(F)c(Cl)c1)c1cc(N[C@H]2CC[C@H](N)CC2)nc2ccnn12`, the IC50 in data set [1] is over 300 µM.

For orientation: IC50 means the midpoint of a concentration-inhibition curve. Broadly, the AUC(0-t) is exposure summed from dosing to a finite time, without extrapolation to infinity. Lower therefore signals low exposure. In general, clearance refers to the volume of plasma or blood freed of the substance per unit of time. Low values mean a low capacity for elimination, high ones a high capacity for elimination. Usually bioavailability stands for the share of a dose that reaches the circulation, judged against a reference dose that is usually intravenous. A lower bioavailability goes with poor availability. For orientation: half-life means how long it takes for the measured level to halve. Lower therefore signals rapid decline.
